Data as given in patent US20230271950A1, “ANTIBACTERIAL PICOLINAMIDE COMPOUNDS” (University of Notre Dame Du Lac, priority 2020, published 2023).

Test system: C. difficile
Experiment: MIC by broth microdilution against C. difficile strains
Type: cell-based, Clostridioides difficile

Measured: MIC

O=C(O)c1ccc2oc(NC(=O)c3cc(Oc4cccc(OC(F)(F)F)c4)ccn3)nc2c1 [Compound 1, Sodium 2-(4-(3-(trifluoromethoxy)phenoxy)picolinamido)benzo[d]oxazole-5-carboxylate]
0.125 µg/mL: C. difficile 23691 (VR, vancomycin-resistant), Table 7 | C. difficile 23691, Table 9 | C. difficile 24923 (VR, vancomycin-resistant), Table 7 | C. difficile 24923, Table 9 | C. difficile 27081 (FR, fidaxomicin-resistant), Table 7 | C. difficile 27081, Table 9 | C. difficile 27173 (MR, metronidazole-resistant), Table 7 | C. difficile 27173, Table 9 | C. difficile ATCC43255, Table 7 | C. difficile ATCC43255, Table 9 | C. difficile ATCC43598, Table 9 | C. difficile BAA-1801, Table 9 | C. difficile BAA-1804, Table 9 | C. difficile BAA-1812, Table 9 | C. difficile BAA-1814, Table 9 | C. difficile BAA-1870, Table 7 | C. difficile BAA-1870, Table 9 | C. difficile HM-89, Table 9 | C. difficile HM-745, Table 9 | C. difficile HM-746, Table 9 | C. difficile HM-747, Table 9 | C. difficile NR49292, Table 7 | C. difficile NR49292, Table 9 | C. difficile NR49310, Table 7 | C. difficile NR49310, Table 9 | C. difficile NR-13427, Table 9 | C. difficile NR-13428, Table 9 | C. difficile NR-13430, Table 9 | C. difficile NR-13434, Table 9 | C. difficile NR-13435, Table 9 | C. difficile NR-13436, Table 9 | C. difficile NR-13437, Table 9 | C. difficile NR-13438, Table 9 | C. difficile NR-13553, Table 9 | C. difficile NR-32882, Table 9 | C. difficile NR-32883, Table 9 | C. difficile NR-32884, Table 9 | C. difficile NR-32886, Table 9 | C. difficile NR-32887, Table 9 | C. difficile NR-32888, Table 9 | C. difficile NR-32889, Table 9 | C. difficile NR-32892, Table 9 | C. difficile NR-32897, Table 9 | C. difficile NR-32900, Table 9 | C. difficile NR-32904, Table 9 | C. difficile NR-49277, Table 9 | C. difficile NR-49278, Table 9 | C. difficile NR-49279, Table 9 | C. difficile NR-49280, Table 9 | C. difficile NR-49282, Table 9 | C. difficile NR-49286, Table 9 | C. difficile NR-49288, Table 9 | C. difficile NR-49290, Table 9 | C. difficile NR-49291, Table 9 | C. difficile NR-49293, Table 9 | C. difficile NR-49295, Table 9 | C. difficile NR-49296, Table 9 | C. difficile NR-49299, Table 9 | C. difficile NR-49300, Table 9 | C. difficile NR-49301, Table 9 | C. difficile NR-49303, Table 9 | C. difficile NR-49307, Table 9 | C. difficile NR-49308, Table 9 | C. difficile NR-49309, Table 9 | C. difficile NR-49312, Table 9 | C. difficile NR-49314, Table 9 | C. difficile NR-49315, Table 9 | C. difficile NR-49316, Table 9 | C. difficile NR-49317, Table 9 | C. difficile NR-49319, Table 9 | C. difficile NR-49320, Table 9 | C. difficile NR-49323, Table 9 | C. difficile NR-49324, Table 9 | C. difficile NR-49325, Table 9 | C. difficile NR-49326, Table 9 | C. difficile NR-49329, Table 9 | C. difficile, Table 8 | Clostridioides difficile
